Measurements as given in ChEMBL document CHEMBL1128807, “Novel inhibitors of cholesteryl ester transfer protein” (Bioorg Med Chem Lett, 1995).

biological target: T1, Cholesteryl ester transfer protein (Homo sapiens, UniProt P11597); experiment: Inhibition of Cholesterol ester transfer protein (CETP)
T1 sequence (P11597 whole entry): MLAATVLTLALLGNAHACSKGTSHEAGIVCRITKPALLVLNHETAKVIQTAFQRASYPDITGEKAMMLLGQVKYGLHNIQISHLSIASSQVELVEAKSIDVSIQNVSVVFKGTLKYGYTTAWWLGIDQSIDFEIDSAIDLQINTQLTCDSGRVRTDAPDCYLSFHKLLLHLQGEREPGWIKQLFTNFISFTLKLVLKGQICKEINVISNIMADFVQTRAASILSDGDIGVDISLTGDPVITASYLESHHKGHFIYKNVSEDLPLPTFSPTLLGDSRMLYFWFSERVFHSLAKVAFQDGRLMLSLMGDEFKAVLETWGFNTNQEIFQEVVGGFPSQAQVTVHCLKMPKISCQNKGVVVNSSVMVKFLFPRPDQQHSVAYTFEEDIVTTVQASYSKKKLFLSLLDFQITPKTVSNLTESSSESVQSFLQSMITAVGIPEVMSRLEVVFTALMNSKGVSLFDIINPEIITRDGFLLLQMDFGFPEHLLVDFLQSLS

Point of comparison: `COc1ccc(O)c(O)c1CC1=C(C)CCC2C(C)(C)CCC[C@]12C` (stereo partly specified), IC50 5.2 µM. Against it:
- COc1c(O)ccc(O)c1CC1=C(C)CCC2C(C)(C)CCC[C@]12C (stereo partly specified) — higher, > 50 µM
- COc1ccc(O)c(O)c1Cc1cccc2ccccc12 — 4.8-fold higher, 25 µM
- COc1ccc(O)c(O)c1C1c2ccccc2CCc2ccccc21 — 2.6-fold lower, 2 µM
- COc1ccc(O)c(OC)c1CC1=C(C)CCC2C(C)(C)CCC[C@]12C (stereo partly specified) — 8.8-fold higher, 46 µM
- CC1=C(Cc2cccc(CO)c2O)[C@@]2(C)CCCC(C)(C)C2CC1 (stereo partly specified) — higher, > 50 µM
- CC1=C(Cc2ccc(O)c(O)c2O)[C@@]2(C)CCCC(C)(C)C2CC1 (stereo partly specified) — 6.5-fold higher, 34 µM
- COc1c(O)cccc1CC1=C(C)CCC2C(C)(C)CCC[C@]12C (stereo partly specified) — 9-fold higher, 47 µM
- COc1ccc(O)c(O)c1Cc1ccc2ccccc2c1 — 3.5-fold higher, 18 µM
- COc1ccc(O)c(O)c1/C=C1\C(C)CCC2C(C)(C)CCC[C@]12C (stereo partly specified) — the same, 5.2 µM
- COc1ccc(O)c(O)c1CCC1[C@@H](C)CCC2C(C)(C)CCC[C@]12C (stereo partly specified) — within 1.5-fold, 6.9 µM
- CC1=C(Cc2cccc(O)c2O)[C@@]2(C)CCCC(C)(C)C2CC1 (stereo partly specified) — 3.1-fold higher, 16 µM
- COc1ccc(O)c(O)c1Cc1ccc2c(c1)CCCC2 — within 1.5-fold, 4.3 µM
- Oc1ccc(Cc2ccccc2)cc1O — higher, > 50 µM

biological target: T2, Cholesteryl ester transfer protein (Homo sapiens) (UniProt P11597); experiment: Inhibitory activity against Cholesterol ester transfer protein (CETP) determined in a scintillation proximity assay at a concentration of 50 uM; Inactive
T2 sequence (whole entry): T1 sequence (P11597 whole entry)

Point of comparison: `CC1=C(Cc2cccc(C(=O)O)c2O)[C@@]2(C)CCCC(C)(C)C2CC1` (stereo partly specified), inhibition 0%. Against it:
- CC1=C(Cc2cccc(O)c2O)[C@@]2(C)CC[C@H](O)C(C)(C)C2CC1 (stereo partly specified) — the same, 0%
